Measured values reported in ChEMBL document CHEMBL5360601, “Discovery of Potent, Dual-Inhibitors of Diacylglycerol Kinases Alpha and Zeta Guided by Phenotypic Optimization” (ACS Med Chem Lett, 2023).

Key:
[1] = Inhibition of DGK in human whole blood cell assessed as increase in IFNgamma level incubated for 1 hr followed by anti-human CD3/ antiCD28 mAB stimulation and measure after 24 hrs by AlphaLISA assay; format: tissue-based
[2] = target: Diacylglycerol kinase beta (Homo sapiens, UniProt Q9Y6T7); experiment: Inhibition of human DGK beta using 1, 2-Dilauroyl-sn-glycerol as substrate by ADP-Glo assay
Raji [3] = experiment: IL2 production in PD-L1 positive human Raji cells measured after 24 hrs by Cell titer glo assay
[4] = target: Diacylglycerol kinase zeta (Homo sapiens, UniProt Q13574); experiment: Inhibition of human DGK zeta using 1, 2-Dilauroyl-sn-glycerol as substrate by ADP-Glo kinase assay
[5] = target: Diacylglycerol kinase gamma (Homo sapiens, UniProt P49619); experiment: Inhibition of human DGK gamma using 1, 2-Dilauroyl-sn-glycerol as substrate by ADP-Glo assay
[6] = Metabolic stability in human liver microsomes assessed as parent compound remaining; format: ADME, Microsome
[7] = target: Diacylglycerol kinase iota (Homo sapiens, UniProt O75912); experiment: Inhibition of human DGK iota using 1, 2-Dilauroyl-sn-glycerol as substrate by ADP-Glo kinase assay
[8] = target: T1, Diacylglycerol kinase alpha (Homo sapiens, UniProt P23743); experiment: Inhibition of human DGK alpha using 1, 2-Dilauroyl-sn-glycerol as substrate by ADP-Glo assay
[9] = target: T2, Diacylglycerol kinase kappa (Homo sapiens, UniProt Q5KSL6); experiment: Inhibition of human DGK kappa using 1, 2-Dilauroyl-sn-glycerol as substrate by ADP-Glo kinase assay
T2 sequence (Q5KSL6 whole entry): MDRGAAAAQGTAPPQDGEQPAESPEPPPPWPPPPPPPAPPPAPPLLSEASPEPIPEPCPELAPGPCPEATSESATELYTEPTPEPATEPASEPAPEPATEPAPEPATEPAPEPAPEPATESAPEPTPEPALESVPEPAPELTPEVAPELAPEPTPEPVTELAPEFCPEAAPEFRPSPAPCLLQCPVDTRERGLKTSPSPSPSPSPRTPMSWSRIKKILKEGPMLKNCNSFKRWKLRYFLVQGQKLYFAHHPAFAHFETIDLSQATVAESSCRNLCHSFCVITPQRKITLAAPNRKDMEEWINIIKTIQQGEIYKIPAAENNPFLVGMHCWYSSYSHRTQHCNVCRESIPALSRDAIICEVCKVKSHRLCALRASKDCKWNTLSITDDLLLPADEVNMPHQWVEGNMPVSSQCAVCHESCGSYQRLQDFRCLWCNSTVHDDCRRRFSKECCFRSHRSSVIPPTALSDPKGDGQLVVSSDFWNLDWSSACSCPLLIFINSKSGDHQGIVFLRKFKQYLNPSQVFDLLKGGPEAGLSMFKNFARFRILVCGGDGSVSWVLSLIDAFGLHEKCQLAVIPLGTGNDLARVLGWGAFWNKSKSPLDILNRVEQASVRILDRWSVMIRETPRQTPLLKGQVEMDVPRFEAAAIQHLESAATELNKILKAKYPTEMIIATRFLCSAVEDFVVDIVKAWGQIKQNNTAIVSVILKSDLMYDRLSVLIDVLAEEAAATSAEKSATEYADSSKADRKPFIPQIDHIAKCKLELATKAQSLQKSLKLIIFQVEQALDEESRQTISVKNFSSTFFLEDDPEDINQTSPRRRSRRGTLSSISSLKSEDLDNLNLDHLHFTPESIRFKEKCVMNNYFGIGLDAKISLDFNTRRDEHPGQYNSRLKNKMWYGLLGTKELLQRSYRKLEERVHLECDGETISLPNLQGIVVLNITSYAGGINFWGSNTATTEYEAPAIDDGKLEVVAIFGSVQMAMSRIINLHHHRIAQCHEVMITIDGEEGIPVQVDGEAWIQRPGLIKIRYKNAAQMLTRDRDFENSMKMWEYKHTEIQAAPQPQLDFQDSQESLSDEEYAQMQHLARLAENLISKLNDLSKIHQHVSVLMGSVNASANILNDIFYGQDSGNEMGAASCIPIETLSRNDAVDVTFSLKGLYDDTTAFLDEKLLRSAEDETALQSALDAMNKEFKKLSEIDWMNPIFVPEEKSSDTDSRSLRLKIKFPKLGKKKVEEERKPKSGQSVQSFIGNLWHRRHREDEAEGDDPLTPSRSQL

[10] = Metabolic stability in mouse liver microsomes assessed as parent compound remaining; format: ADME, Microsome
Raji [11] = experiment: IL2 production in PD-L1 negative human Raji cells measured after 24 hrs by Cell titer glo assay
[12] = Inhibition of DGK in human whole blood cell assessed as increase in pERK level incubated for 1 hr followed by anti-human CD3 stimulation and measure after 15 mins by AlphaLISA assay; format: tissue-based
[13] = target: T1, Diacylglycerol kinase alpha; experiment: Inhibition of DGK alpha (unknown origin)
[14] = Induction of proliferation of human CD8-positive T cell measured after 24 hrs by Cell titer glo assay

Sequence of Diacylglycerol kinase iota (O75912 whole entry): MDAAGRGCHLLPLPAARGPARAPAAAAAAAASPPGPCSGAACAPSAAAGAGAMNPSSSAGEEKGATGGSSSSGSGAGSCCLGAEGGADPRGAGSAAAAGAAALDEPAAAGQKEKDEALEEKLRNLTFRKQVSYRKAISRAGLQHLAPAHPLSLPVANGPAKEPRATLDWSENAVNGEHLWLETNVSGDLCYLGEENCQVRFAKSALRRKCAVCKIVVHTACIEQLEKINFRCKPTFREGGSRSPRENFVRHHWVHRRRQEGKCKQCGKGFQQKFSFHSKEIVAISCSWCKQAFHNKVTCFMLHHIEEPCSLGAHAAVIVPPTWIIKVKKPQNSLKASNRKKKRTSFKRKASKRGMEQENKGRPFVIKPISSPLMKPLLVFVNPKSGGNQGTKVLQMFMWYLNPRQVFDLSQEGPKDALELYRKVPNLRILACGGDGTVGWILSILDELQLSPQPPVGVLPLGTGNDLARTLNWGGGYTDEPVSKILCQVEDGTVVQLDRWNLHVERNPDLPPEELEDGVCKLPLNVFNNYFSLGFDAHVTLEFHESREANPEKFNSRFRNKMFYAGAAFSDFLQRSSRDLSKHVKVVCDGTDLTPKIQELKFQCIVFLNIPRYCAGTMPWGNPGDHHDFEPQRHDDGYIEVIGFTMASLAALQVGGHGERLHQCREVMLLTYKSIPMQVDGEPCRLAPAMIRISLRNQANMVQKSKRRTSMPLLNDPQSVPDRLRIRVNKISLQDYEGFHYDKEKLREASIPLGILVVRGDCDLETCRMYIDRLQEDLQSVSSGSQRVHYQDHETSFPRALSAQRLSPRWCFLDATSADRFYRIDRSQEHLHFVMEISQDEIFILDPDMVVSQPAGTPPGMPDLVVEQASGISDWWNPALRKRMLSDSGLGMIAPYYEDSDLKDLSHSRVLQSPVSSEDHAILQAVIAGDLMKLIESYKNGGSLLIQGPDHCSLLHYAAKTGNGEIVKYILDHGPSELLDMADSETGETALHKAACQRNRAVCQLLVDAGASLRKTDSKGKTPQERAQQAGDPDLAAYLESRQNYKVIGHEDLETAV
Sequence of Diacylglycerol kinase zeta (Q13574 whole entry): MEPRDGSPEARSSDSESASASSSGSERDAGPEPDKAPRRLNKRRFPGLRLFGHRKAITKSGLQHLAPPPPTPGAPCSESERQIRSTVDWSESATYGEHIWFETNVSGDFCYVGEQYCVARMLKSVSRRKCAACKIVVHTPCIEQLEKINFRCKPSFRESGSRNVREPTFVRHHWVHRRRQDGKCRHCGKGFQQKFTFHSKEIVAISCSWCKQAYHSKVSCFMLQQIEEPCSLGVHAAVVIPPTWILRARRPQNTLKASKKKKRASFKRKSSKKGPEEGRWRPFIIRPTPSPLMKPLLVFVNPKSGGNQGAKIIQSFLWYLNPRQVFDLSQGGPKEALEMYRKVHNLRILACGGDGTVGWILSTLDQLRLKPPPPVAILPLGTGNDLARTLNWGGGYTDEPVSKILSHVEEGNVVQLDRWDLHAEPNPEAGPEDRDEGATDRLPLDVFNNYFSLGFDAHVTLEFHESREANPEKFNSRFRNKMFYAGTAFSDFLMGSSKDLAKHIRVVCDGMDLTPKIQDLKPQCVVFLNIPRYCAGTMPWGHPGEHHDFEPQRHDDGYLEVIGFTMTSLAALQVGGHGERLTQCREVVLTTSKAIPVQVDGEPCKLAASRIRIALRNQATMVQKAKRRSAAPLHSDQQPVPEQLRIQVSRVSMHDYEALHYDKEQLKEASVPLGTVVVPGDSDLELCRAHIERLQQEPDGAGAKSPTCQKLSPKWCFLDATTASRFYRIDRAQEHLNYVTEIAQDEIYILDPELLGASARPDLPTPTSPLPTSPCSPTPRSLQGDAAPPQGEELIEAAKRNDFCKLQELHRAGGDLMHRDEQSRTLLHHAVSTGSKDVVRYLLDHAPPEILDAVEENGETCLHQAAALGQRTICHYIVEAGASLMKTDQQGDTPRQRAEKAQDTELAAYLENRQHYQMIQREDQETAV
T1 sequence (P23743 whole entry): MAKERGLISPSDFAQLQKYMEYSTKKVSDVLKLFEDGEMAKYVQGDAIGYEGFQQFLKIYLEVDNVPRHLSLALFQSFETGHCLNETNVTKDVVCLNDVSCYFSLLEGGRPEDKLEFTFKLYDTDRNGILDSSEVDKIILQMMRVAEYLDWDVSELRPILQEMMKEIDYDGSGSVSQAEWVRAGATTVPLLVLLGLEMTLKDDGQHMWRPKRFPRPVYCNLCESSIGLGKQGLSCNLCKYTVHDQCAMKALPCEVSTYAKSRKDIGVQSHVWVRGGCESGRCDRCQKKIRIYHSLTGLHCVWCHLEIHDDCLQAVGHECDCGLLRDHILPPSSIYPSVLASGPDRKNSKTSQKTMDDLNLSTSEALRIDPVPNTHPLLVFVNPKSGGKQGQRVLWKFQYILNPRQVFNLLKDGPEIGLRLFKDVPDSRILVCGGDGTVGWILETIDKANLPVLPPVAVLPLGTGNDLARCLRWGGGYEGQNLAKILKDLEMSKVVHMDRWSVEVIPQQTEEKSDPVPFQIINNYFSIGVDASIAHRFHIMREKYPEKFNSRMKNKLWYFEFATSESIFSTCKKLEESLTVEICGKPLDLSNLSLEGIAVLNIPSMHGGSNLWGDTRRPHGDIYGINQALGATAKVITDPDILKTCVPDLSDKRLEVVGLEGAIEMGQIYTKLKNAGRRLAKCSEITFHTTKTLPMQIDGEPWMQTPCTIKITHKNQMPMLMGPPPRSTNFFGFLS
Sequence of Diacylglycerol kinase gamma (P49619 whole entry): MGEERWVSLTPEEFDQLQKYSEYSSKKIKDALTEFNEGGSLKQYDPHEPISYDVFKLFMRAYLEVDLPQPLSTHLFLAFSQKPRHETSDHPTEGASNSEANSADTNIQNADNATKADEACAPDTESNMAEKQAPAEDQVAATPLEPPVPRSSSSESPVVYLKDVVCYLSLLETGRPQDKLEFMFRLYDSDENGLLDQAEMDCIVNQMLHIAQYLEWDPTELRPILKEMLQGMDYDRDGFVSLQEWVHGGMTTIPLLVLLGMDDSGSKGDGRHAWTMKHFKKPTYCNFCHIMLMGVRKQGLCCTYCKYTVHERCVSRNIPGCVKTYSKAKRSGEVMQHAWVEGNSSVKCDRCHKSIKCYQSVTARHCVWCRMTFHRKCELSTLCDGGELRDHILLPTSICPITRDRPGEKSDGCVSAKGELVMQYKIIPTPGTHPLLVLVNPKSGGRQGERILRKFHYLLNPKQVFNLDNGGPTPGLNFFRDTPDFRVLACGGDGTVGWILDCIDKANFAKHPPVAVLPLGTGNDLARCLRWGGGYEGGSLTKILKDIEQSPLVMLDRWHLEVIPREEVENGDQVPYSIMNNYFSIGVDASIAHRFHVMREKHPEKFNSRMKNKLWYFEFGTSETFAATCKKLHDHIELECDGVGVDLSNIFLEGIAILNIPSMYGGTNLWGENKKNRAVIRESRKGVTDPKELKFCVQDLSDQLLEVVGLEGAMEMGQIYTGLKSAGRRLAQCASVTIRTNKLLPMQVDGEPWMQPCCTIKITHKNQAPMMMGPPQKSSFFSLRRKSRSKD

Compound | EC50 (Raji [3]) [nM] | Stability [6] [%] | Stability [10] [%] | EC50 (Raji [11]) [nM] | further results
Cn1c(=O)c([N+](=O)[O-])c(N2CCN(C(c3ccccc3)c3ccccc3)CC2)c2ccccc21 | 3200 | 93 | 82 | 2400 | EC50 [1]: > 20000 nM; IC50 [2]: 2500 nM; IC50 [4]: > 10000 nM; IC50 [5]: 1900 nM; IC50 [7]: > 10000 nM; IC50 [8]: 15 nM; IC50 [9]: > 10000 nM; EC50 [12]: > 20000 nM
Cn1c(=O)c(C#N)c(N2CCN(C(c3ccc(F)cc3)c3ccc(F)cc3)CC2)c2cc(F)ccc21 | 610 | 84 | – | 1100 | –
CCOC(=O)c1c(N2CCN(C(c3ccccc3)c3ccccc3)CC2)c2ccccc2n(C)c1=O | 4100 | 49 | 52 | 20000 | –
CCCN1CCN(c2c([N+](=O)[O-])c(=O)n(C)c3ccccc23)CC1 | > 100000 | – | – | > 100000 | –
O=c1[nH]c2ccccc2c(N2CCN(C(c3ccc(F)cc3)c3ccc(F)cc3)CC2)c1[N+](=O)[O-] | > 33000 | – | – | > 100000 | –
Cn1c(=O)c([N+](=O)[O-])c(N2CCN(Cc3ccccc3)CC2)c2cc(F)ccc21 | 1500 | 43 | 8 | 2500 | –
CC(=O)c1c(N2CCN(C(c3ccccc3)c3ccccc3)CC2)c2ccccc2n(C)c1=O | 8500 | – | – | 13000 | –
CC(c1ccccc1)N1CCN(c2c([N+](=O)[O-])c(=O)n(C)c3ccccc23)CC1 (stereo not given) | 6390 | 25 | 4 | 9280 | –
Cn1c(=O)c([N+](=O)[O-])c(N2CCN(C(c3ccc(F)cc3)c3ccc(F)cc3)CC2)c2cc(C#N)ccc21 | 130 | 97 | 93 | 120 | IC50 [4]: 10000 nM; IC50 [7]: 6200 nM; IC50 [8]: 34 nM
Cn1c(=O)c(C#N)c(N2CCN(C(c3ccc(F)cc3)c3ccc(F)cc3)CC2)c2nc(C#N)ccc21 | 190 | 92 | 80 | 67 | –
Cn1c(=O)c([N+](=O)[O-])c(N2CCN(C(c3ccc(F)cc3)c3ccc(F)cc3)CC2)c2cc(F)ccc21 | 340 | 89 | 77 | 490 | –
Cc1nc2sccn2c(=O)c1CCN1CCC(=C(c2ccccc2)c2ccc(F)cc2)CC1 | – | – | – | – | IC50 [13]: 25400 nM
Cn1c(=O)c([N+](=O)[O-])c(N2CCN(C(c3ccc(F)cc3)c3ccc(F)cc3)CC2)c2cnccc21 | 560 | 100 | 63 | 840 | –
Cn1c(=O)c([N+](=O)[O-])c(N2CCN(CCc3ccccc3)CC2)c2ccccc21 | > 100000 | 28 | 6 | > 100000 | –
Cn1c(=O)cc(N2CCN(C(c3ccccc3)c3ccccc3)CC2)c2ccccc21 | > 5000 | 93 | 63 | > 16000 | –
Cn1c(=O)c([N+](=O)[O-])c(N2CCN(C(c3ccc(F)cc3)c3ccc(F)cc3)CC2)c2ccccc21 | 1500 | 86 | 84 | 3700 | –
COc1ccc2c(c1)c(N1CCN(C(c3ccc(F)cc3)c3ccc(F)cc3)CC1)c([N+](=O)[O-])c(=O)n2C | 630 | 79 | 8 | 1200 | –
Cn1c(=O)c(C(=O)C(F)(F)F)c(N2CCN(C(c3ccccc3)c3ccccc3)CC2)c2ccccc21 | 7100 | 75 | 63 | 5800 | –
Cn1c(=O)c(C#N)c(N2CCN(C(c3ccccc3)c3ccccc3)CC2)c2ccccc21 | 1370 | – | – | 1240 | –
Cn1c(=O)c([N+](=O)[O-])c(N2CCN(C(c3ccc(F)cc3)c3ccc(F)cc3)CC2)c2cccnc21 | 7700 | – | – | 13000 | –
CCn1c(=O)c([N+](=O)[O-])c(N2CCN(C(c3ccc(F)cc3)c3ccc(F)cc3)CC2)c2ccccc21 | > 100000 | – | – | > 100000 | –
Cn1c(=O)c(C(=O)O)c(N2CCN(C(c3ccccc3)c3ccccc3)CC2)c2ccccc21 | > 100000 | – | – | > 100000 | –
COc1ccc2c(n1)c(N1CCN(C(c3ccc(F)cc3)c3ccc(F)cc3)CC1)c(C#N)c(=O)n2C | 390 | 100 | 43 | 400 | –
Cn1c(=O)c([N+](=O)[O-])c(N2CCN(C(c3ccc(F)cc3)c3ccc(F)cc3)CC2)c2ccc(F)cc21 | 2600 | – | – | 1800 | –
O=c1c2ccccc2[nH]c(=S)n1CCN1CCC(=C(c2ccc(F)cc2)c2ccc(F)cc2)CC1 [DIACYLGLYCEROL KINASE INHIBITOR II] | – | – | – | – | EC50 [1]: > 10000 nM; IC50 [2]: > 10000 nM; EC50 [14]: > 10000 nM; IC50 [4]: > 10000 nM; IC50 [5]: 3400 nM; IC50 [7]: > 10000 nM; IC50 [8]: 4300 nM
O=C1/C(=C/C=C/c2ccco2)SC(=S)N1NS(=O)(=O)c1ccccc1 | – | – | – | – | IC50 [8]: 600 nM
C#CCCC1(CCCN2CCN(c3c([N+](=O)[O-])c(=O)n(C)c4ccc(Br)nc34)CC2)N=N1 | 420 | 10 | < 1 | 370 | –
CN(C)c1ccc2c(c1)c(N1CCN(C(c3ccc(F)cc3)c3ccc(F)cc3)CC1)c([N+](=O)[O-])c(=O)n2C | 670 | 69 | 5 | 760 | –
Cn1c(=O)c([N+](=O)[O-])c(N2CCN(C(c3ccc(F)cc3)c3ccc(F)cc3)CC2)c2ncccc21 | 290 | 92 | 88 | 310 | IC50 [4]: 2700 nM; IC50 [7]: 1000 nM; IC50 [8]: 53 nM
